Source: PubChem BioAssay AID256 (DTP/NCI, 2004)
Several values for one entry are separate records, joined by “and”; a condition that tells them apart may be missing. Equal entries are not always repeated. Inconclusive results and toxic doses are left out.

Test system: CD2F1 mice, L1210 leukemia ip, survival T/C
Test: NCI In Vivo Anticancer Drug Screen. Data for tumor model L1210 Leukemia (intraperitoneal) in CD2F1 (CDF1) mice
Details: higher = longer survival
Outline: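 Ratio T/C, where T is the treated-group value and C the vehicle-dosed control value, from mice implanted with a transplantable tumor.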

[1] = endpoint: mean survival time, dose: 100.0 mg/kg/injection, schedule: Q04DX003 (ip), vehicle: saline with Tween-80
[2] = endpoint: mean survival time, dose: 200.0 mg/kg/injection, schedule: Q04DX003 (ip), vehicle: saline with Tween-80
[3] = endpoint: mean survival time, dose: 400.0 mg/kg/injection, schedule: Q04DX003 (ip), vehicle: saline with Tween-80

## O=C(O)/C(O)=C(/O)C(=O)O.[NH-]C1CCCCC1[NH-].[Pt+2]
endpoint: median survival time, dose: 3.12 mg/kg/injection, schedule: Q04DX003 (ip), vehicle: saline
  T/C: 97 % of control
endpoint: median survival time, dose: 25.0 mg/kg/injection, schedule: Q04DX003 (ip), vehicle: saline
  T/C: 113 % of control and 202 % of control
endpoint: median survival time, dose: 50.0 mg/kg/injection, schedule: Q04DX003 (ip), vehicle: saline
  T/C: 337 % of control
endpoint: median survival time, dose: 200.0 mg/kg/injection, schedule: Q04DX003 (ip), vehicle: saline
  T/C: 184 % of control

## CN=S(=O)(OCCCCCOS(=O)(=NC)c1ccccc1)c1ccccc1 (stereo not drawn)
endpoint: mean survival time, dose: 12.5 mg/kg/injection, schedule: Q01DX009 (ip), vehicle: saline with Tween-80
  T/C: 103 % of control
endpoint: mean survival time, dose: 25.0 mg/kg/injection, schedule: Q01DX009 (ip), vehicle: saline with Tween-80
  T/C: 106 % of control
endpoint: mean survival time, dose: 50.0 mg/kg/injection, schedule: Q01DX009 (ip), vehicle: saline with Tween-80
  T/C: 103 % of control
endpoint: mean survival time, dose: 100.0 mg/kg/injection, schedule: Q01DX009 (ip), vehicle: saline with Tween-80
  T/C: 106 % of control

## CCOC(=O)C[Se]CC(=O)OCC
endpoint: mean survival time, dose: 100.0 mg/kg/injection, schedule: Q01DX001 (ip), vehicle: saline with Tween-80
  T/C: 100 % of control
endpoint: mean survival time, dose: 200.0 mg/kg/injection, schedule: Q01DX001 (ip), vehicle: saline with Tween-80
  T/C: 103 % of control

## CN=C(NC)c1cccc(NC(=O)/C=C\c2ccc(/C=C/C(=O)Nc3cccc(C(=NC)NC)c3)cc2)c1
endpoint: median survival time, dose: 1.25 mg/kg/injection, schedule: Q01DX009 (ip), vehicle: saline
  T/C: 101 % of control
endpoint: median survival time, dose: 2.5 mg/kg/injection, schedule: Q01DX009 (ip), vehicle: saline
  T/C: 107 % of control
endpoint: median survival time, dose: 5.0 mg/kg/injection, schedule: Q01DX009 (ip), vehicle: saline
  T/C: 101 % of control

## O=C(O/N=C(/CN1CCOCC1)c1ccc(Cl)cc1)c1ccccc1
[1]
  T/C: 97 % of control
[2]
  T/C: 94 % of control
[3]
  T/C: 90 % of control

## Cc1nnc(-c2cn(C3OC(CO)C(O)C3O)c3ncnc(N)c23)nc1C (stereo not drawn)
endpoint: mean survival time, dose: 100.0 mg/kg/injection, schedule: Q01DX005 (ip), vehicle: saline
  T/C: 97 % of control
endpoint: mean survival time, dose: 200.0 mg/kg/injection, schedule: Q01DX005 (ip), vehicle: saline
  T/C: 96 % of control

## CCC(=O)C(C)N(C)c1ccccc1 (stereo not drawn)
endpoint: mean survival time, dose: 100.0 mg/kg/injection, schedule: Q04DX003 (ip), vehicle: saline
  T/C: 100 % of control
endpoint: mean survival time, dose: 200.0 mg/kg/injection, schedule: Q04DX003 (ip), vehicle: saline
  T/C: 100 % of control
endpoint: mean survival time, dose: 400.0 mg/kg/injection, schedule: Q04DX003 (ip), vehicle: saline
  T/C: 94 % of control

## CC1CC(OC(=O)c2ccccc2)CCC1=O (stereo not drawn)
endpoint: mean survival time, dose: 5.0 mg/kg/injection, schedule: Q01DX001 (ip), vehicle: other
  T/C: 102 % of control
endpoint: mean survival time, dose: 10.0 mg/kg/injection, schedule: Q01DX001 (ip), vehicle: other
  T/C: 106 % of control
endpoint: mean survival time, dose: 20.0 mg/kg/injection, schedule: Q01DX001 (ip), vehicle: other
  T/C: 103 % of control
endpoint: mean survival time, dose: 40.0 mg/kg/injection, schedule: Q01DX001 (ip), vehicle: other
  T/C: 108 % of control
endpoint: mean survival time, dose: 80.0 mg/kg/injection, schedule: Q01DX001 (ip), vehicle: other
  T/C: 96 % of control

## CN(C1=CC(=O)C(=O)c2ccccc21)c1ccccc1
endpoint: mean survival time, dose: 75.0 mg/kg/injection, schedule: Q01DX001 (ip), vehicle: saline
  T/C: 97 % of control
endpoint: mean survival time, dose: 150.0 mg/kg/injection, schedule: Q01DX001 (ip), vehicle: saline
  T/C: 95 % of control
endpoint: mean survival time, dose: 300.0 mg/kg/injection, schedule: Q01DX001 (ip), vehicle: saline
  T/C: 100 % of control

## CCOC(=O)Nc1cc(N(C)C)c(N)c(N)n1
endpoint: mean survival time, dose: 100.0 mg/kg/injection, schedule: Q01DX001 (ip), vehicle: carboxymethylcellulose (CMC)
  T/C: 100 % of control
endpoint: mean survival time, dose: 200.0 mg/kg/injection, schedule: Q01DX001 (ip), vehicle: carboxymethylcellulose (CMC)
  T/C: 100 % of control

## CC(C)C1=CC23CCC4C(C)(C(=O)O)CCCC4(C)C2CC1OO3 (stereo not drawn)
[1]
  T/C: 93 % of control
[2]
  T/C: 92 % of control
[3]
  T/C: 95 % of control

## O=S1(=O)CCC(C2CCCCC2)C1 (stereo not drawn)
endpoint: mean survival time, dose: 100.0 mg/kg/injection, schedule: Q01DX001 (ip), vehicle: saline
  T/C: 95 % of control
endpoint: mean survival time, dose: 200.0 mg/kg/injection, schedule: Q01DX001 (ip), vehicle: saline
  T/C: 98 % of control
endpoint: mean survival time, dose: 400.0 mg/kg/injection, schedule: Q01DX001 (ip), vehicle: saline
  T/C: 106 % of control

## O=C1c2ccccc2C(=O)C1(Cl)C(Cl)c1ccc([N+](=O)[O-])cc1 (stereo not drawn)
endpoint: mean survival time, dose: 100.0 mg/kg/injection, schedule: Q04DX003 (ip), vehicle: Klucel (hydroxypropylcellulose) (HPC)
  T/C: 100 % of control
endpoint: mean survival time, dose: 200.0 mg/kg/injection, schedule: Q04DX003 (ip), vehicle: Klucel (hydroxypropylcellulose) (HPC)
  T/C: 106 % of control
endpoint: mean survival time, dose: 400.0 mg/kg/injection, schedule: Q04DX003 (ip), vehicle: Klucel (hydroxypropylcellulose) (HPC)
  T/C: 106 % of control

## CCCCC(C(=O)O)c1ccccc1 (stereo not drawn)
endpoint: mean survival time, dose: 100.0 mg/kg/injection, schedule: Q01DX009 (ip), vehicle: saline
  T/C: 98 % of control
endpoint: mean survival time, dose: 200.0 mg/kg/injection, schedule: Q01DX009 (ip), vehicle: saline
  T/C: 98 % of control
endpoint: mean survival time, dose: 400.0 mg/kg/injection, schedule: Q01DX009 (ip), vehicle: saline
  T/C: 101 % of control
